Legend:
HT-29 tumor cells = experiment: Cell growth inhibition assay (CellTiter-Glo), HT-29; settings: Homo sapiens, HT-29, 72 h, read-out: Activity in HT-29 Tumor Cells;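 further: ATP content read by luminescence as proxy for cell number, growth inhibition versus DMSO vehicle wells, 0.2% DMSO final, nine serial threefold compound dilutions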
ErbB2 = ErbB2 (Homo sapiens, UniProt P04626); experiment: ErbB2 kinase autophosphorylation assay (peptide phosphorylation, HTRF); assay type: biochemical; settings: 10 nM ErbB2, HTRF; class by pIC50
Protocol: (§1) A selection of compounds of the present invention were tested for inhibitory activity against EGFR and ErbB2 kinases in autophosphorylation assays.
(§2) The method measures the ability of the isolated enzyme to catalyse the transfer of the gamma-phosphate from ATP onto the tyrosine residue of a biotinylated synthetic peptide referenced “Peptide C” in Brignola, P. S., et al, (2002) J. Biol. Chem. 277(2):1576-1585. The extent of tyrosine phosphorylation was measured using an anti-phosphotyrosine antibody, and quantified by homogenous time-resolved fluorescence (HTRF).
(§3) Reactions were performed in black 384-well polystyrene flat-bottom plates in a final volume of 20 ul. Assays were performed by adding 10 μl of each of the following solutions, substrate Mix and enzyme mix: The Substrate mix contained 100 mM 3-[N-morpholino]propanesulfonic acid (MOPS) (pH 7.5), 2 mM MnCl2, 20 μM ATP, 0.01% Tween-20, 0.1 mg/mL (BSA), 0.8 uM peptide substrate, and 1 mM dithiothreitol. The enzyme mix contained 100 mM MOPS (pH7.5); 0.01% Tween-20; 0.1 mg/mL BSA, and either 0.8 nM EGFR, 10 nM ErbB2, or 1 nM ErbB4
(§4) The enzyme mix was added to the compound plates and the plates were incubated at 20° C. for 1 hour. The reactions were allowed to proceed for 90 minutes at 20° C. The reactions were then terminated by the addition of 20 μl 100 mM EDTA to each well. 40 μl/well of HTRF detection mix were added to the assay plates. The final concentrations of the detection reagents were: 100 mM HEPES (pH7.5), 0.1 mg/mL BSA, 15 nM streptavidin-labeled allophycocyanin (PerkinElmer), and 1 nM europium-labeled anti-phosphotyrosine antibody (PerkinElmer). Assay plates were left unsealed and were counted in a Wallac Multilabel Counter 1420 (PerkinElmer).
(§5) Compounds under analysis were dissolved in Me2SO to 1.0 mM and serially diluted 1 to 3 with Me2SO through twelve dilutions. 1 μl of each concentration was transferred to the corresponding well of an assay plate. This creates a final compound concentration range from 0.00027 to 47.6 μM.
(§6) The data for dose responses were plotted as % Inhibition calculated with the data reduction formula 100*(1−(U1−C2)/(C1−C2)) versus concentration of compound where U is the unknown value, C1 is the average control value obtained for 4.76% DMSO, and C2 is the average control value obtained for 0.035 M EDTA. Data were fitted with a curve described by:
(§7) where Vmax is the upper asymptote, Y2 is the Y intercept, and K is the IC50. The results for each compound were recorded as pIC50s, calculated as follows: […]
(§8) In the following table: • “+” indicates no pIC50 measurement greater than 6 against EGFR or ErbB2, • “++” indicates at least one pIC50 measurement greater than 6 against EGFR or ErbB2 but no measurement greater than pIC50 of 7; and • “+++” indicates at least one pIC50 measurement of greater than 7 against EGFR or ErbB2.

SK-MEL-3 tumor cells = experiment: Cell growth inhibition assay (CellTiter-Glo), SK-MEL-3; settings: Homo sapiens, SK-MEL3, 72 h, read-out: Activity in SK-MEL-3 Tumor Cells;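 further: human melanoma cells grown with compound for 3 days in 0.2% DMSO, total ATP read by luminescence as proxy for cell number, growth inhibition versus DMSO-treated wells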
EGFR = EGFR (Homo sapiens, UniProt P00533); experiment: EGFR kinase autophosphorylation assay (peptide phosphorylation, HTRF); assay type: biochemical; settings: 0.8 nM EGFR, class by pIC50
Protocol: as §1, §2, §3, §4, §5, §6, §7, §8

B-Raf = B-Raf (Homo sapiens, UniProt P15056); experiment: B-Raf Accelerated MEK ATPase assay (BRAMA); assay type: biochemical; settings: BRAMA enzyme assay; class by pIC50; read-out: B-Raf Activity
Outline: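 B-Raf activity read as intrinsic MEK ATPase: catalytic activated RAF with non-phosphorylated MEK drives ADP formation, coupled through pyruvate kinase and lactate dehydrogenase to NADH oxidation, independent of ERK phosphorylation.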

SK-MEL-28 tumor cells = experiment: Cell growth inhibition assay (CellTiter-Glo), SK-MEL-28; settings: Homo sapiens, SK-MEL-28, 72 h, read-out: Activity in SK-MEL-28 Tumor Cells;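 further: luminescent total ATP as a proxy for cell number, threefold serial dilutions at 0.2% DMSO, percent growth inhibition versus DMSO vehicle control wells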
Colo205 tumor cells = experiment: Cell growth inhibition assay (CellTiter-Glo), Colo205; settings: Homo sapiens, COLO 205, 72 h, read-out: Activity in Colo205 Tumor Cells;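 further: growth measured via total ATP luminescence (CellTiter-Glo) as a proxy for cell number, inhibition expressed against DMSO-treated control wells, 3-day exposure at 0.2% final DMSO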
A375P tumor cells = experiment: Cell growth inhibition assay (CellTiter-Glo), A375P; settings: Homo sapiens, 72 h, read-out: Activity in A375P Tumor Cells;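 further: total ATP luminescence used as proxy for cell number, serial threefold compound dilutions at 0.2% DMSO, growth inhibition expressed versus DMSO vehicle-treated wells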

Sequence of ErbB2 (P04626 23-1255): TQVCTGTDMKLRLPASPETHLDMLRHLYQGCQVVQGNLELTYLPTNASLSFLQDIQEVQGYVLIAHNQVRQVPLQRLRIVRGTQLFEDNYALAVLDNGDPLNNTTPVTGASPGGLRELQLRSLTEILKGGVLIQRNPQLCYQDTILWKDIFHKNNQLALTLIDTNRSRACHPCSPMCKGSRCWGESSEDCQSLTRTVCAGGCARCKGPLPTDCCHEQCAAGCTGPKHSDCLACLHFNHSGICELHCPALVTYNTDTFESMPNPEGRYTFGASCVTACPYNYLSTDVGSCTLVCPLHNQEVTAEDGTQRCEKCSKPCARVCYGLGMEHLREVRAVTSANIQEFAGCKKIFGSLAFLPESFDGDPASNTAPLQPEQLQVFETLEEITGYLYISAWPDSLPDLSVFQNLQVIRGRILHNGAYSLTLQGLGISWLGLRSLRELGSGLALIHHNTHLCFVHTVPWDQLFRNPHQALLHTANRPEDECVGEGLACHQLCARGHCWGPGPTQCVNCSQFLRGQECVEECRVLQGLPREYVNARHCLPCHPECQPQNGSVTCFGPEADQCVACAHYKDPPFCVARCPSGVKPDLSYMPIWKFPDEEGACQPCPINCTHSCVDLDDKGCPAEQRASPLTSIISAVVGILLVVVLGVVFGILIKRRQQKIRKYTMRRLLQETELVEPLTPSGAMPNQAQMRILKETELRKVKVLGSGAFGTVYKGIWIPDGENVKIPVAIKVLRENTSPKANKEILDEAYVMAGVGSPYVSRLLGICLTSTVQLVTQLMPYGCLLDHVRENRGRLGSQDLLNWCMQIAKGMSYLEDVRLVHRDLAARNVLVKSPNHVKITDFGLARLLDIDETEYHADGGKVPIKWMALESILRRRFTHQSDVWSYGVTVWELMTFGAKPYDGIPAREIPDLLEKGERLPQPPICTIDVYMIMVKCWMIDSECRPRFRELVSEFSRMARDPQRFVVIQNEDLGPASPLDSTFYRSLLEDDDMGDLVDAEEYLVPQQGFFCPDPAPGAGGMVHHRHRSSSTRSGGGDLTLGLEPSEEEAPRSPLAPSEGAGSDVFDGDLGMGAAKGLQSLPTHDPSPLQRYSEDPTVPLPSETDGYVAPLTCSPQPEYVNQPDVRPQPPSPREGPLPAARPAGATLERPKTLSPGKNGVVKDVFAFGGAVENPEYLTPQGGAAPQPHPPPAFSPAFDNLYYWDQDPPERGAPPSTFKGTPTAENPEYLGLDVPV
Sequence of EGFR (P00533 25-1210): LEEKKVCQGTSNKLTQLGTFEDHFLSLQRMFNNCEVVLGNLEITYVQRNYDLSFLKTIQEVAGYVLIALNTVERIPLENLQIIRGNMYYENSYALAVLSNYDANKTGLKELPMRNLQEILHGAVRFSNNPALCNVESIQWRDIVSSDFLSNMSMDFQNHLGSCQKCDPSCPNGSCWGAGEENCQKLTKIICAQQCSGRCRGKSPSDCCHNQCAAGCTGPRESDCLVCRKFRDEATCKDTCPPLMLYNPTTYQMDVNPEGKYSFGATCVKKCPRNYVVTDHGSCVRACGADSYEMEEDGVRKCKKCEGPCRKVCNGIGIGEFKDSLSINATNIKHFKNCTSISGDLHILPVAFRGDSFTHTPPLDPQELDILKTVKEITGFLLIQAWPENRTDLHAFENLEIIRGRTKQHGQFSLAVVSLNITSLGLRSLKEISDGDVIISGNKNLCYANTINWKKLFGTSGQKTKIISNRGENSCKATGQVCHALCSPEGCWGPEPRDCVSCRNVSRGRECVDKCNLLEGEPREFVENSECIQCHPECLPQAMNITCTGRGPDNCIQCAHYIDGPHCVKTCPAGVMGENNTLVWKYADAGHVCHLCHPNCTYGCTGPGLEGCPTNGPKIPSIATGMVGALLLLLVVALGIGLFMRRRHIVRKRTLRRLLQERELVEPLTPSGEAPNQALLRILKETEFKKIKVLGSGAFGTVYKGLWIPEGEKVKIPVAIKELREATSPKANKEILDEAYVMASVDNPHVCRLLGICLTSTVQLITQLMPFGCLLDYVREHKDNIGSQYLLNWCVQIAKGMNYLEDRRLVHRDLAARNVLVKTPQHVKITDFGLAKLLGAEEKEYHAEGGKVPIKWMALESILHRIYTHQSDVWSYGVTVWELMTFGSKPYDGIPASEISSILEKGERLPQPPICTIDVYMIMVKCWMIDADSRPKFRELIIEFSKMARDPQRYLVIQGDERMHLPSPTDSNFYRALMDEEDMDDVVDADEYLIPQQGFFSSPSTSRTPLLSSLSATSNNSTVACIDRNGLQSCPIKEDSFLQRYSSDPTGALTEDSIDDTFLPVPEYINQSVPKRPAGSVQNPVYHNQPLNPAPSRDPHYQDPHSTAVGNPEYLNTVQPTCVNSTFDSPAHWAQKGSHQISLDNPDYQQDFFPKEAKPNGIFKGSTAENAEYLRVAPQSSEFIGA
Sequence of B-Raf (P15056 whole entry): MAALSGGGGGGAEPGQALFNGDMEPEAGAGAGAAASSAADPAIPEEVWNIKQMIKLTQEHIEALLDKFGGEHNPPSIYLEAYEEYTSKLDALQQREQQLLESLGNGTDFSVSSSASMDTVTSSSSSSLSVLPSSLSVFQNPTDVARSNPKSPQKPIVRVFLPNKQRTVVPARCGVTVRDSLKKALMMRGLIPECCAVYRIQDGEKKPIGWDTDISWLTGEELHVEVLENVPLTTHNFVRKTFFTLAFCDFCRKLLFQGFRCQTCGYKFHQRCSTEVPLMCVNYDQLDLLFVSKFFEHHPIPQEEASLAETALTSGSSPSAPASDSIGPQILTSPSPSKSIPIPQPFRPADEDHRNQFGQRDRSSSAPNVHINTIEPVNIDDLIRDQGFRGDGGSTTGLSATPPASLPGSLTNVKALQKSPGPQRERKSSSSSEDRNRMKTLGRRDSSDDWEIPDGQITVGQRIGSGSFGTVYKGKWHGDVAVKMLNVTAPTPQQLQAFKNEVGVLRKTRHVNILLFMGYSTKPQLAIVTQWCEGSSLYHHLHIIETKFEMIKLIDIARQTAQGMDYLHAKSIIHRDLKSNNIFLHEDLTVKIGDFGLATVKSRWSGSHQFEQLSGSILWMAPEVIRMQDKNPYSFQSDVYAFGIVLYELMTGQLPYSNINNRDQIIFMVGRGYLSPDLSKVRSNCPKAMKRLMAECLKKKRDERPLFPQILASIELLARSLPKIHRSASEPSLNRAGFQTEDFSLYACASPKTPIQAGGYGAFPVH

Row | Structure (SMILES) | IC50 (HT-29 tumor cells) | IC50 (ErbB2) | IC50 (SK-MEL-3 tumor cells) | IC50 (EGFR) | IC50 (B-Raf) | IC50 (SK-MEL-28 tumor cells) | IC50 (Colo205 tumor cells) | IC50 (A375P tumor cells)
1 | CCNc1nc(-c2cc(OC)cc(OC)c2)c(-c2ccnc(Nc3ccc(OC4CCN(CCO)CC4)c(F)c3)n2)o1 [Example 124] | < 500 nM | > 1000 nM | < 500 nM | > 1000 nM | < 100 nM | 500 to 5000 nM | 500 to 5000 nM | 500 to 5000 nM
2 | CCNc1nc(-c2cccc(OC)c2)c(-c2ccnc(Nc3ccc(OCCN4CCCC4)c(F)c3)n2)s1 [Example 72, 4-{2-(Ethylamino)-4-[3-(methyloxy)phenyl]-1,3-thiazol-5-yl}-N-(3-fluoro-4-{[2-(1-pyrrolidinyl)ethyl]oxy}phenyl)-2-pyrimidinamine] | < 500 nM | < 100 nM | < 500 nM | < 100 nM | < 100 nM | 500 to 5000 nM | < 500 nM | < 500 nM
3 | CCc1nc(-c2cc(C)cc(OC)c2)c(-c2ccnc(Nc3ccc(OCCO)c(C#N)c3)n2)s1 [Example 107] | < 500 nM | > 1000 nM | < 500 nM | > 1000 nM | < 100 nM | 500 to 5000 nM | < 500 nM | 500 to 5000 nM

Now from value to compound:

Row | IC50 (HT-29 tumor cells) | IC50 (ErbB2) | IC50 (SK-MEL-3 tumor cells) | IC50 (EGFR) | IC50 (B-Raf) | IC50 (SK-MEL-28 tumor cells) | IC50 (Colo205 tumor cells) | IC50 (A375P tumor cells) | Structure (SMILES)
4 | < 500 nM | > 1000 nM | < 500 nM | > 1000 nM | < 100 nM | < 500 nM | < 500 nM | < 500 nM | CCNc1nc(-c2cc(C)cc(OC)c2)c(-c2ccnc(Nc3ccc(N4CCN(C(C)=O)CC4)nc3)n2)s1 [Example 36, N-[6-(4-Acetyl-1-piperazinyl)-3-pyridinyl]-4-{2-(ethylamino)-4-[3-methyl-5-(methyloxy)phenyl]-1,3-thiazol-5-yl}-2-pyrimidinamine]
5 | < 500 nM | < 100 nM | < 500 nM | < 100 nM | < 100 nM | < 500 nM | < 500 nM | < 500 nM | CCNc1nc(-c2cccc(O)c2)c(-c2ccnc(Nc3ccc(OCCN4CCCC4)c(Cl)c3)n2)s1 [Example 44]
6 | < 500 nM | > 1000 nM | < 500 nM | > 1000 nM | < 100 nM | < 500 nM | < 500 nM | < 500 nM | CCNc1nc(-c2cc(C)cc(OC)c2)c(-c2ccnc(Nc3ccc4c(c3)CCN4C(C)=O)n2)s1 [Example 30, 1-Acetyl-N-(4-{2-(ethylamino)-4-[3-methyl-5-(methyloxy)phenyl]-1,3-thiazol-5-yl}-2-pyrimidinyl)-2,3-dihydro-1H-indol-5-amine]
7 | < 500 nM | < 100 nM | < 500 nM | < 100 nM | < 100 nM | < 500 nM | < 500 nM | < 500 nM | CCNc1nc(-c2cccc(Cl)c2)c(-c2ccnc(Nc3ccc(OCCN(C)C)c(Cl)c3)n2)s1 [Example 46, N-(3-Chloro-4-{[2-(dimethylamino)ethyl]oxy}phenyl)-4-[4-(3-chlorophenyl)-2-(ethylamino)-1,3-thiazol-5-yl]-2-pyrimidinamine]
8 | < 500 nM | > 1000 nM | < 500 nM | > 1000 nM | < 100 nM | < 500 nM | < 500 nM | < 500 nM | CCNc1nc(-c2cc(OC)cc(OC)c2)c(-c2ccnc(Nc3ccc(N4CCN(C(C)=O)CC4)nc3)n2)s1 [Example 4, N-[6-(4-Acetyl-1-piperazinyl)-3-pyridinyl]-4-[4-[3,5-bis(methyloxy)phenyl]-2-(ethylamino)-1,3-thiazol-5-yl]-2-pyrimidinamine]

Source: patent US20110190280A1, “Thiazole And Oxazole Kinase Inhibitors” (priority 2007, published 2011)
